Key:
[1] = test system: A/PR/8/34(H1N1) influenza virus strain; assay: Treatment of influenza infection of newborn mice (15.2); type: in vivo, mouse; details: virus at P5, i.p. treatment at day 2, 3, 4 and 5; kept 10 days
Method: Four groups of newborn bulb/c pups were inoculated at day 5 (P5) via nasal and oral administration of 20 μl (microliter) of the A/PR/8/34(H1N1) influenza virus strain (titer: 1:256, diluted 200 times with saline); and were treated at day 2, 3, 4 and 5 via intraperitoneal injection with 100 μl of saline containing 1) saline alone (n=10); 2) 150 microgram of Neu5AcMe; 3) 30 μl of 2% diethyl disulfide plus 200 μg of the Neu5AcMe (n=10); and 4) 30 μl of 2% diethyl disulfide plus 200 μg of the Neu5Ac (n=10). Mice were kept for 10 days after treatment.

[2] = test system: rhesus rotavirus (RRV); assay: Prevention of rotavirus infection in mouse pups with methionine-Zn (8.1); type: in vivo
[3] = test system: rhesus rotavirus (RRV); assay: Prevention of rotavirus infection in mouse pups with Neu5Ac, methionine, formula-1 (5.7); type: in vivo; details: for Not sick (number) / Sick Rate(%): 20 μl oral at P1, RRV at P2; for Sick (number): 20 μl oral at P1, RRV at P2, 3 weeks; for Odds Ratio: vs saline
[4] = test system: 2009H1N1 influenza virus (California strain); type: in vivo, chicken
[5] = type: in vivo, chicken
[6] = pretreated at E16, virus next day

Compound: COC(=O)[C@]1(O)CC(O)[C@@H](NC(C)=O)C(C(O)[C@H](O)CO)O1 (some centres unmarked) [Neu5AcMe, N-Acetylneuraminic acid methyl ester]
- pups survived [1]: 50%

Compound: Methionine-Zinc (Zn) complex [Metnionine-Zn]
- Not sick (number) ([2]; 20 μl oral at P1, RRV at P2): 6
- Sick Rate(%) ([2]; 20 μl oral at P1, RRV at P2): 14%
- Sick (number) ([2]; 20 μl oral at P1, RRV at P2, 3 weeks): 1
- Odds Ratio ([2]; vs saline): 0.03

Compound: CSCC[C@H](N)C(=O)O [Metnionine, Methionine]
- Not sick (number) [3]: 9
- Sick Rate(%) [3]: 25.0%
- Sick (number) [3]: 3
- Odds Ratio [3]: 0.07

Compound: CCSSCC [Diethyl disulfide]
- Not sick (number) [4, 6]: 5
- Sick (number) [4, 6]: 1
- Sick Rate(%) [4, 6]: 17%
- Odds Ratio ([4]; vs saline): 0.04

Compound: CC(=O)N[C@H]1[C@H]([C@H](O)[C@H](O)CO)OC(O)(C(=O)O)C[C@@H]1O (some centres unmarked) [Neu5Ac, N-Acetylneuraminic acid]
- Not sick (number) [3]: 10
- Sick Rate(%) [3]: 23.1%
- Sick (number) [3]: 3
- Odds Ratio [3]: 0.07
- side effect of the H5N1 vaccine candidate (still sick) ([5]; day 3, saline 87.5%): 12.5%
- Odd Ratio ([5]; in vivo): 0.02
- sick chickens recovered and looked normal ([5]; in vivo, po): 7/8

Source: patent US10342812B2, “Glycan-based drugs, therapies and biomarkers” (priority 2008, dated 2019)
